Publication PMC11434290, “Pharmacokinetics and Dose Proportionality Study of a Novel Antiparkinsonian Agent, a 1H-1,2,4-Triazol-3-ylthio-conjugate of Prottremine” (Molecules, 2024)
“Also recorded” adds a separate entry of the source.

How the values were obtained:
[1] = Pharmacokinetics of PA-96 after single oral (p.o.) administration to mice; assay type: in vivo, CD-1 mice; settings: for Tmax / bioavailability / Cmax / half-life / AUC(0-t) / Vd/F: both sexes, CD-1, mouse, whole blood; for Tmax / Cmax / half-life / AUC(0-t) / Vd/F: po; for bioavailability: oral, assessed via AUC of i.v. injection at 1 mg/kg; for Vd/F: read-out: Vz/F_obs
Method: After the development and validation of the method for determination of PA-96 in mice blood, a preliminary pharmacokinetic study was carried out. The agent PA-96 was administered to two mice per os as a suspension in Tween-80 at a dose of 10 mg/kg, and blood samples were taken from the animals at 0.5, 1, 1.5, 2, 2.5, 3, 3.5, 4, 5, 5.5, and 24 h after administration. Four 10 µL samples were taken at each timepoint: two were spotted onto the paper and dried, and two others were precipitated using the ZnSO4 solution. All prepared samples were analysed, and the graph representing the PA-96 peak area values was plotted (Figure 6). […] As such, the PPT method for whole blood samples was chosen for the next experiments.
After administration, blood samples were taken from the tail vein of each animal at 5, 10, 20, 30, 40, 50, 60, 75, 90, 120, and 150 min, and the samples were prepared following the PPT protocol.
(§1) The LC–MS/MS analysis was carried out using a Shimadzu LC-20AD Prominence chromatograph equipped with a cooling autosampler, binary gradient pump, and column oven (Shimadzu, Japan) coupled with a 3200 QTRAP mass spectrometer (AB SCIEX, Framingham, MA, USA) equipped with an electrospray ionisation source (ESI). The mass spectrometer worked in positive mode and multiple reaction monitoring (MRM) detection mode for quantitation. Analyst 1.6.2 software (AB SCIEX, Framingham, MA, USA) was used for instrument control and data acquisition, and MultiQuant 2.1 software (AB SCIEX, Framingham, MA, USA) was used for quantitation. To calculate the main pharmacokinetic parameters, the Microsoft Excel plugin PKSolver was used.
(§2) CD-1 mice (male and female) were obtained from the SPF vivarium of the Institute of Cytology and Genetics, Russia. The mice weighed 25–30 g at the beginning of the experiment.
An accurately weighed amount of PA-96 was mechanically mixed with Tween-80 using a mortar and pestle followed by suspending the obtained sample in physiological solution. The animals (n = 2) received a single dose of 10 mg/kg per os (p.o.). The timepoints were 0.5, 1, 1.5, 2, 2.5, 3, 3.5, 4, 5, 5.5, and 24 h. At each timepoint, 10 µL of blood was taken from the tail vein, and the sample was prepared by DBS and PPT with ZnSO4 in methanol. Afterwards, the samples were analysed in accordance with the HPLC–MS/MS protocol.
In the next experiment, the sampling scheme was optimised by changing the timepoints as follows: 5, 10, 20, 30, 40, 50, 60, 75, and 90 min, and 2, 2.5, 3, 3.5, 4, and 5 h; this was in order to investigate the pharmacokinetics more thoroughly. The experiment design was not changed, but the sample preparation was carried out by the PPT method exclusively.
In order to investigate the bioavailability and dose proportionality, PA-96 was administered p.o. at the dosages of 1, 5, and 10 mg/kg and intravenously (i.v.) at the dosages of 1 and 10 mg/kg. For each experiment, we used 6–7 mice. The blood was drawn from the tail vein at the following timepoints: 3, 5, 10, 15, 30, 45, 60, 90, 120, and 150 min. The samples were prepared and analysed.

[2] = Pharmacokinetics of PA-96 after double p.o. administration to mice; assay type: in vivo, CD-1 mice; settings: for AUC(0-t) / Cmax / half-life / Vd/F: 5 mg/kg; for Vd/F: read-out: Vz/F_obs
Method: In our work, an experiment with double administration of the agent PA-96 was carried out. The substance was administered to mice (n = 6) two times at doses of 5 mg/kg within the interval of 4 h as a formulation in Tween-80. After the first administration, blood was collected from the tail vein of each animal at 5, 10, 20, 30, 40, 50, 60, 75, and 90 min, and 2, 2.5, 3, 3.5, and 4 h. After the administration of the second dose, blood was collected at the same timepoints, and all samples were prepared following the PPT protocol.
as §1, §2
To investigate the pharmacokinetics of PA-96 in a multiple dosing regimen, the dosage form was prepared as described above, but only half was administered to the animals (n = 6). The first portion, corresponding to a dose of 5 mg/kg, was administered to the mice followed by blood sampling at 5, 10, 20, 30, 40, 50, 60, 75, and 90 min, and 2, 2.5, 3, 3.5, and 4 h after administration. At the latter timepoint, the second dose was administered, and the blood was sampled at the same timepoints as listed above.

[3] = Stability of PA-96 in prepared samples under different storage conditions; assay type: physicochemical; settings: within 7 days; +23 °C, +4 °C, −70 °C
Method: The stability of PA-96 in the prepared samples was investigated at different storage conditions, as mentioned in the experimental methods section.
To study the influence of the enzymes on the PA-96 stability in whole blood, mice blood spikes containing PA-96 in the concentration of 50 ng/mL were prepared. Aliquots of the spike were precipitated according to the protocol described above. Sampling was carried out at the following timepoints: 5, 10, 20, 30, 40, 50, 120, 180, and 240 min. The long-term stability of the samples was studied by the comparison of freshly prepared samples and samples prepared and kept in different conditions for 7 days. The storage conditions were the following: room temperature (+23 °C), household fridge (+4 °C), and Kelvinator (−70 °C). The acceptance criterion was a CV ≤ 15% for every day and any storing condition.

[4] = system: cultured naïve dopamine neurons; parameters: method as in PMID 36500381; settings: in vitro; cited from earlier work
[5] = 5 mg/kg, single p.o., mice, mean ± SEM, n = 4
[6] = 10 mg/kg, single p.o., mice, mean ± SEM, n = 4
[7] = single p.o., 5 mg/kg, mice, mean ± SEM, n = 4
[8] = single p.o., 10 mg/kg, mice, mean ± SEM, n = 4
[9] = both sexes, CD-1, mouse, whole blood, po, double p.o. 2×5 mg/kg, 1st administration, mean ± SEM, n = 6
[10] = both sexes, CD-1, mouse, whole blood, po, double p.o. 2×5 mg/kg, 2nd administration, mean ± SEM, n = 6

## C=C(C)[C@@H]1CC=C(C)[C@@H](Sc2nc[nH]n2)[C@@H]1O [PA-96]
[1]; single p.o., 5 mg/kg, mice, mean ± SEM, n = 4, read-out: Tmax (converted)
  Tmax: 6.3 min
[1]; single p.o., 10 mg/kg, mice, mean ± SEM, n = 4, read-out: Tmax (converted)
  Tmax: 8.8 min
[1]; p.o. 5 mg/kg, mice
  bioavailability: ~7%
[1]; p.o. 10 mg/kg, mice
  bioavailability: ~35%
[1]; [5]
  Cmax: ~36 ng/mL
  half-life: 44 ± 13 min
[1]; [6]
  Cmax: ~588 ng/mL
  half-life: 15 min
[1]; p.o. doses of 5 mg/kg and 10 mg/kg, mice, read-out: Time of maximum concentration after administration
  Tmax: 5 to 10 min
[1]; [7]
  AUC(0-t): 28.3 ng·h/mL
  Vd/F: 190 L/kg
[1]; [8]
  AUC(0-t): 300 ng·h/mL
  Vd/F: 13.7 L/kg
  t1/2: 15.2 ± 1.2 min
[1]; p.o. 1 mg/kg, n = 2, mice, LLOQ 25 ng/mL
  Signal (concentration) in blood samples: lower than the LLOQ
[1]; p.o. 5 and 10 mg/kg, mice
  Time of complete elimination at oral administration: 2.5 to 3 h
[1]; p.o. 5 vs 10 mg/kg, mice
  Increase in both Cmax and AUC on twofold increase in the dose: by an order of magnitude
[1]; preliminary study, p.o. 10 mg/kg, n = 2 mice
  Time of complete elimination: 2.5 h
[1]; preliminary study, p.o. 10 mg/kg, n = 2 mice, first timepoint sampled
  Timepoint of maximum concentration: 30 min
[2]; [9]
  AUC(0-t): 25 ng·h/mL
  Cmax: 60 ± 15 ng/mL
  half-life: 21 ± 4 min
  Vd/F: 108 ± 25 L/kg
[2]; [10]
  AUC(0-t): 135 ng·h/mL
  Cmax: 58 ± 13 ng/mL
  half-life: 19 ± 3 min
  Vd/F: 25 ± 4 L/kg
[2]; both sexes, CD-1, mouse, whole blood, po, double p.o. 2×5 mg/kg, interval 4 h, 1st administration, mean ± SEM, n = 6
  Tmax: 10 min
[2]; double p.o. 2×5 mg/kg, interval 4 h, mice
  Accumulation after double administration (Cmax, AUC0-∞): absence of its accumulation
[2]; p.o. 5 mg/kg, double administration experiment, mice
  Time to full elimination after administration: 4 h
[3]
  Change of PA-96 concentration in prepared samples: ≤ 11%
[4]
  Survival of cultured naïve dopamine neurons: supported the survival; also recorded: improved potency
